From PubChem BioAssay (NCI)
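Following 48 hours of exposure in 96-well plates, responses at five concentrations were used to interpolate endpoints linearly. TGI: total growth inhibition.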

Tests used:
Test in all cases: DTP human tumour cell line panel, 48 h
786-0 renal = test system: 786-0 renal
A498 renal = test system: A498 renal
A549 NSCLC = test system: A549 NSCLC
ACHN renal = test system: ACHN renal
BT-549 breast = test system: BT-549 breast
CAKI-1 renal = test system: CAKI-1 renal
CCRF-CEM leukemia = test system: CCRF-CEM leukemia
COLO 205 colon = test system: COLO 205 colon
DU-145 prostate = test system: DU-145 prostate
EKVX NSCLC = test system: EKVX NSCLC
HCT-116 colon = test system: HCT-116 colon
HCT-15 colon = test system: HCT-15 colon
HOP-62 NSCLC = test system: HOP-62 NSCLC
HS 578T breast = test system: HS 578T breast
HT29 colon = test system: HT29 colon
KM12 colon = test system: KM12 colon
LOX IMVI melanoma = test system: LOX IMVI melanoma
M14 melanoma = test system: M14 melanoma
MALME-3M melanoma = test system: MALME-3M melanoma
MCF7 breast = test system: MCF7 breast
MDA-MB-231 breast = test system: MDA-MB-231 breast
MDA-MB-435 = test system: MDA-MB-435
MDA-N = test system: MDA-N
NCI-H23 lung = test system: NCI-H23 lung
NCI-H460 lung = test system: NCI-H460 lung
NCI-H522 lung = test system: NCI-H522 lung
NCI/ADR-RES ovarian = test system: NCI/ADR-RES ovarian
OVCAR-3 ovarian = test system: OVCAR-3 ovarian
OVCAR-4 ovarian = test system: OVCAR-4 ovarian
OVCAR-5 ovarian = test system: OVCAR-5 ovarian
PC-3 prostate = test system: PC-3 prostate
RPMI-8226 leukemia = test system: RPMI-8226 leukemia
RXF 393 renal = test system: RXF 393 renal
SF-295 CNS = test system: SF-295 CNS
SF-539 CNS = test system: SF-539 CNS
SK-MEL-2 melanoma = test system: SK-MEL-2 melanoma
SK-MEL-28 melanoma = test system: SK-MEL-28 melanoma
SK-MEL-5 melanoma = test system: SK-MEL-5 melanoma
SK-OV-3 ovarian = test system: SK-OV-3 ovarian
SN12C renal = test system: SN12C renal
SNB-19 CNS = test system: SNB-19 CNS
SNB-75 CNS = test system: SNB-75 CNS
SR leukemia = test system: SR leukemia
SW-620 colon = test system: SW-620 colon
T-47D breast = test system: T-47D breast
TK-10 renal = test system: TK-10 renal
U251 CNS = test system: U251 CNS
UACC-257 melanoma = test system: UACC-257 melanoma
UACC-62 melanoma = test system: UACC-62 melanoma
UO-31 renal = test system: UO-31 renal
HCC-2998 colon = test system: HCC-2998 colon
HOP-92 NSCLC = test system: HOP-92 NSCLC
IGROV1 ovarian = test system: IGROV1 ovarian
K-562 leukemia = test system: K-562 leukemia
MOLT-4 leukemia = test system: MOLT-4 leukemia
NCI-H226 lung = test system: NCI-H226 lung
OVCAR-8 ovarian = test system: OVCAR-8 ovarian
DMS 273 small cell lung = test system: DMS 273 small cell lung
HL-60(TB) leukemia = test system: HL-60(TB) leukemia
HOP-18 NSCLC = test system: HOP-18 NSCLC
SF-268 CNS = test system: SF-268 CNS

O=C(O)C1C2CCC(O2)C1C(=O)NCc1cccnc1 (stereo not given)
TGI (786-0 renal): > 100 µM
TGI (A498 renal): > 100 µM
TGI (A549 NSCLC): > 100 µM
TGI (ACHN renal): > 100 µM
TGI (BT-549 breast): > 100 µM
TGI (CAKI-1 renal): > 100 µM
TGI (CCRF-CEM leukemia): > 100 µM
TGI (COLO 205 colon): > 100 µM
TGI (DU-145 prostate): > 100 µM
TGI (EKVX NSCLC): > 100 µM
TGI (HCT-116 colon): > 100 µM
TGI (HCT-15 colon): > 100 µM
TGI (HOP-62 NSCLC): > 100 µM
TGI (HS 578T breast): > 100 µM
TGI (HT29 colon): > 100 µM
TGI (KM12 colon): > 100 µM
TGI (LOX IMVI melanoma): > 100 µM
TGI (M14 melanoma): > 100 µM
TGI (MALME-3M melanoma): > 100 µM
TGI (MCF7 breast): > 100 µM
TGI (MDA-MB-231 breast): > 100 µM
TGI (MDA-MB-435): > 100 µM
TGI (MDA-N): > 100 µM
TGI (NCI-H23 lung): > 100 µM
TGI (NCI-H460 lung): > 100 µM
TGI (NCI-H522 lung): > 100 µM
TGI (NCI/ADR-RES ovarian): > 100 µM
TGI (OVCAR-3 ovarian): > 100 µM
TGI (OVCAR-4 ovarian): > 100 µM
TGI (OVCAR-5 ovarian): > 100 µM
TGI (PC-3 prostate): > 100 µM
TGI (RPMI-8226 leukemia): > 100 µM
TGI (RXF 393 renal): > 100 µM
TGI (SF-295 CNS): > 100 µM
TGI (SF-539 CNS): > 100 µM
TGI (SK-MEL-2 melanoma): > 100 µM
TGI (SK-MEL-28 melanoma): > 100 µM
TGI (SK-MEL-5 melanoma): > 100 µM
TGI (SK-OV-3 ovarian): > 100 µM
TGI (SN12C renal): > 100 µM
TGI (SNB-19 CNS): > 100 µM
TGI (SNB-75 CNS): > 100 µM
TGI (SR leukemia): > 100 µM
TGI (SW-620 colon): > 100 µM
TGI (T-47D breast): > 100 µM
TGI (TK-10 renal): > 100 µM
TGI (U251 CNS): > 100 µM
TGI (UACC-257 melanoma): > 100 µM
TGI (UACC-62 melanoma): > 100 µM
TGI (UO-31 renal): > 100 µM

Cc1ccc(Cc2n[nH]c(=O)n2N2C(=O)c3ccccc3C2=O)cc1
TGI (786-0 renal): > 100 µM
TGI (A498 renal): > 100 µM
TGI (A549 NSCLC): > 100 µM
TGI (ACHN renal): > 100 µM
TGI (BT-549 breast): > 100 µM
TGI (CAKI-1 renal): > 100 µM
TGI (CCRF-CEM leukemia): > 100 µM
TGI (COLO 205 colon): > 100 µM
TGI (DU-145 prostate): > 100 µM
TGI (EKVX NSCLC): > 100 µM
TGI (HCC-2998 colon): > 100 µM
TGI (HCT-116 colon): > 100 µM
TGI (HCT-15 colon): > 100 µM
TGI (HOP-62 NSCLC): > 100 µM
TGI (HOP-92 NSCLC): > 100 µM
TGI (HS 578T breast): > 100 µM
TGI (HT29 colon): > 100 µM
TGI (IGROV1 ovarian): > 100 µM
TGI (K-562 leukemia): > 100 µM
TGI (KM12 colon): > 100 µM
TGI (LOX IMVI melanoma): > 100 µM
TGI (M14 melanoma): > 100 µM
TGI (MALME-3M melanoma): > 100 µM
TGI (MCF7 breast): > 100 µM
TGI (MDA-MB-231 breast): > 100 µM
TGI (MDA-MB-435): > 100 µM
TGI (MDA-N): > 100 µM
TGI (MOLT-4 leukemia): > 100 µM
TGI (NCI-H226 lung): > 100 µM
TGI (NCI-H23 lung): > 100 µM
TGI (NCI-H460 lung): > 100 µM
TGI (NCI/ADR-RES ovarian): > 100 µM
TGI (OVCAR-3 ovarian): > 100 µM
TGI (OVCAR-4 ovarian): > 100 µM
TGI (OVCAR-5 ovarian): > 100 µM
TGI (OVCAR-8 ovarian): > 100 µM
TGI (PC-3 prostate): > 100 µM
TGI (SF-295 CNS): > 100 µM
TGI (SF-539 CNS): > 100 µM
TGI (SK-MEL-2 melanoma): > 100 µM
TGI (SK-MEL-28 melanoma): > 100 µM
TGI (SK-MEL-5 melanoma): > 100 µM
TGI (SN12C renal): > 100 µM
TGI (SNB-19 CNS): > 100 µM
TGI (SNB-75 CNS): > 100 µM
TGI (SR leukemia): > 100 µM
TGI (SW-620 colon): > 100 µM
TGI (T-47D breast): > 100 µM
TGI (TK-10 renal): > 100 µM
TGI (U251 CNS): > 100 µM
TGI (UACC-257 melanoma): > 100 µM
TGI (UACC-62 melanoma): > 100 µM
TGI (UO-31 renal): > 100 µM

CC(=O)Oc1cc(OC(C)=O)c2c(c1)OC(c1ccc(OC(C)=O)c(OC(C)=O)c1)CC2=O (stereo not given)
TGI (A549 NSCLC): > 100 µM
TGI (CCRF-CEM leukemia): > 100 µM
TGI (COLO 205 colon): > 100 µM
TGI (DMS 273 small cell lung): > 100 µM
TGI (HCC-2998 colon): > 100 µM
TGI (HCT-116 colon): > 100 µM
TGI (HL-60(TB) leukemia): 29.7 µM
TGI (HOP-18 NSCLC): 95.8 µM
TGI (HOP-92 NSCLC): 69.4 µM
TGI (SF-295 CNS): > 100 µM
TGI (SK-MEL-5 melanoma): > 100 µM
TGI (SK-OV-3 ovarian): > 100 µM
TGI (SN12C renal): > 100 µM
TGI (SR leukemia): 49 µM
TGI (SW-620 colon): > 100 µM
TGI (TK-10 renal): > 100 µM
TGI (UO-31 renal): > 100 µM

CN(C)C=Nc1c2c(nc3ccccc13)CCCC2
TGI (786-0 renal): > 100 µM
TGI (A498 renal): > 100 µM
TGI (A549 NSCLC): > 100 µM
TGI (ACHN renal): > 100 µM
TGI (BT-549 breast): > 100 µM
TGI (CAKI-1 renal): > 100 µM
TGI (CCRF-CEM leukemia): > 100 µM
TGI (COLO 205 colon): > 100 µM
TGI (DU-145 prostate): > 100 µM
TGI (EKVX NSCLC): > 100 µM
TGI (HCT-116 colon): > 100 µM
TGI (HCT-15 colon): > 100 µM
TGI (HL-60(TB) leukemia): > 100 µM
TGI (HOP-62 NSCLC): > 100 µM
TGI (HOP-92 NSCLC): > 100 µM
TGI (HS 578T breast): > 100 µM
TGI (HT29 colon): > 100 µM
TGI (IGROV1 ovarian): > 100 µM
TGI (K-562 leukemia): > 100 µM
TGI (LOX IMVI melanoma): > 100 µM
TGI (M14 melanoma): > 100 µM
TGI (MALME-3M melanoma): > 100 µM
TGI (MCF7 breast): > 100 µM
TGI (MDA-MB-231 breast): > 100 µM
TGI (MDA-MB-435): > 100 µM
TGI (MDA-N): > 100 µM
TGI (MOLT-4 leukemia): > 100 µM
TGI (NCI-H226 lung): > 100 µM
TGI (NCI-H23 lung): > 100 µM
TGI (NCI-H522 lung): > 100 µM
TGI (NCI/ADR-RES ovarian): > 100 µM
TGI (OVCAR-3 ovarian): > 100 µM
TGI (OVCAR-4 ovarian): > 100 µM
TGI (OVCAR-5 ovarian): > 100 µM
TGI (OVCAR-8 ovarian): > 100 µM
TGI (PC-3 prostate): > 100 µM
TGI (RPMI-8226 leukemia): > 100 µM
TGI (RXF 393 renal): > 100 µM
TGI (SF-268 CNS): > 100 µM
TGI (SF-295 CNS): > 100 µM
TGI (SF-539 CNS): > 100 µM
TGI (SK-MEL-2 melanoma): > 100 µM
TGI (SK-MEL-28 melanoma): > 100 µM
TGI (SK-MEL-5 melanoma): > 100 µM
TGI (SK-OV-3 ovarian): > 100 µM
TGI (SN12C renal): > 100 µM
TGI (SNB-19 CNS): > 100 µM
TGI (SNB-75 CNS): > 100 µM
TGI (SR leukemia): > 100 µM
TGI (T-47D breast): > 100 µM
TGI (TK-10 renal): > 100 µM
TGI (U251 CNS): > 100 µM
TGI (UACC-257 melanoma): > 100 µM
TGI (UACC-62 melanoma): > 100 µM
TGI (UO-31 renal): > 100 µM
